According to US20140024716A1, “Composition Comprising S-Allyl-L-Cysteine as Active Ingredient for Preventing or Treating Gastrointestinal Disorders” (PHARMAKING CO., LTD., priority 2009, published 2014):
Entries after “also recorded” stand apart in the source; their conditions may differ. Read-outs that look alike come from different tables or passages of the source.

What was measured:
H. pylori ATCC 43504 = test: Serum anti-H. pylori IgG (ELISA) in Helicobacter pylori-infected mice; format: in vivo, C57BL/6 mice
Description: (§1) S-allyl-L-Cysteine (SAC) was purchased from TCI Chemical Co. (Tokyo, Japan). Helicobacter pylori was American Type Culture Collection (ATCC) 43504 (cagA+, vacA s1-ml type) and cultured in a Mueller Hinton-Agar broth at 37° C. for 48 hours, under 5% CO2 microaerophilic conditions with a concentration of 1×10^9 CFU/ml.
8-week old male C57BL/6 mice were classified into 4 groups, i.e., a positive control group (to which Helicobacter pylori was administered; PC), a negative control group (to which saline was administered; NC), experimental group 1 (to which Helicobacter pylori and 200 mg/kg of SAC were administered; SAC1), and experimental group 2 (to which Helicobacter pylori and 400 mg/kg of SAC were administered; SAC2). Each group had 10 mice. White powdered SAC was diluted in tap water to concentrations of 20 mg/mL and 40 mg/mL and 10 μl/g (body weight) of the diluted SAC was orally administered to the mice of the SAC1 and SAC2 groups three times a week for 10 weeks. The mice were given free access to tap water for the entire test period. […]
Enzyme-linked immunosorbent assay (ELISA) was used in order to identify the effect of SAC on serum anti-Helicobacter pylori antibody-formation capability. […] 100 μl of 0.2 M sulfuric acid was added thereto to terminate the reaction and absorbance was measured at 450 nm.

[1] = design: species or system C57BL/6 mice; details: mouse, in vivo
Description: as §1
8-week old male specific pathogen free (SPF) C57BL/6 mice were used. Weights of the mice were measured in the Animal Lab, Department of Pathology, the College of Veterinary Medicine, Kyungbook National University. Then, the mice were classified into 4 groups and bred such that average weights of each group are similar to each other. The mice were acclimated and bred in the Animal Lab, Department of Pathology, the College of Veterinary Medicine, Kyungbook National University at a temperature of 22±3° C., at a relative humidity of 50±10%, with light for 12 hours (light turned on at 08:00 and light turned off at 20:00) by an automatic temperature and humidity control system. Other environments for breeding which might influence the test for the entire test period were not considered for use. […]
Weights of male C57BL/6 mice infected with Helicobacter pylori ere measured three times a week for the entire 10-week test period to observe weight changes of the mice.

With `C=CCSC[C@H](N)C(=O)O` [SAC, S-allyl-L-cysteine] the “antibody titer of anti-H. pylori IgG in serum, SAC2 versus SAC1 group” value (H. pylori ATCC 43504; 400 mg/kg versus 200 mg/kg SAC) was “significantly less than that in the SAC1 group”, the “antibody titer of anti-H. pylori IgG in serum versus PC group” value (H. pylori ATCC 43504; SAC1 and SAC2 groups (200 and 400 mg/kg SAC oral, 10 weeks)) was “significantly less; also recorded: less than that in the PC group” and the “weight increase rate less than the PC group by” value ([1]; 200 mg/kg) was 2%. The “weight increase rate less than the PC group by” value ([1]; 400 mg/kg) was 0.2%.
